From ChEMBL document CHEMBL1147137, “Structure-activity relationship of uridine 5'-diphosphoglucose analogues as agonists of the human P2Y14 receptor” (J Med Chem, 2007)

Molecular target: T1, P2Y purinoceptor 14 (Homo sapiens, UniProt Q15391)
T1 sequence (Q15391 whole entry): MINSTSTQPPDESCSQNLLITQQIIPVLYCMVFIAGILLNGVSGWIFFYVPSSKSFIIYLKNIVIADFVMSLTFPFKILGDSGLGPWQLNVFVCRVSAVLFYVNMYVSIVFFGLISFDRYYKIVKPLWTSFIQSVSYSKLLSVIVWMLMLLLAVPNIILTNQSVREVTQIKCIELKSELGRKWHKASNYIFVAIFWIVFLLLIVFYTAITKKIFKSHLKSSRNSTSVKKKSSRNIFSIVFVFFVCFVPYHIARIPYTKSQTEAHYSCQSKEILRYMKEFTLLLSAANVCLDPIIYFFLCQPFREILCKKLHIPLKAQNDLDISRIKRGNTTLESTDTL
Assay: Agonist activity at human P2Y14 expressed in COS7 cells assessed as stimulation of PLC-mediated [3H]inositol hydrolysis
Format: functional, cell-based, COS-7
Conditions: not given

| Compound | EC50 |
| --- | --- |
| O=c1ccn([C@@H]2O[C@H](COP(=O)(O)OP(=O)(O)OC[C@@]3(O)O[C@H](CO)[C@@H](O)[C@@H]3O)[C@@H](O)[C@H]2O)c(=O)[nH]1 | 880 nM (agonist) |
| O=C(O)[C@H]1O[C@H](OP(=O)(O)OP(=O)(O)OC[C@H]2O[C@@H](n3ccc(=O)[nH]c3=O)[C@H](O)[C@@H]2O)[C@H](O)[C@@H](O)[C@@H]1O | 370 nM (agonist) |
| O=C(O)[C@H]1O[C@H](OP(=O)(O)OP(=O)(O)OC[C@H]2O[C@@H](n3ccc(=O)[nH]c3=S)[C@H](O)[C@@H]2O)[C@H](O)[C@@H](O)[C@@H]1O | 420 nM (agonist) |
| O=c1ccn([C@@H]2O[C@H](COP(=O)(O)OP(=O)(O)O[C@H]3[C@H](O)[C@@H](O)[C@H](O)[C@@H](O)[C@@H]3O)[C@@H](O)[C@H]2O)c(=O)[nH]1 | 1880 nM (agonist) |
| CSc1ccn([C@@H]2O[C@H](COP(=O)(O)OP(=O)(O)O[C@H]3O[C@H](CO)[C@@H](O)[C@H](O)[C@H]3O)[C@@H](O)[C@H]2O)c(=O)n1 | > 10000 nM |

Other lines, results leading:

| EC50 | Compound |
| --- | --- |
| 49 nM (agonist) | O=c1ccn([C@@H]2O[C@H](COP(=O)(O)OP(=O)(O)O[C@H]3O[C@H](CO)[C@@H](O)[C@H](O)[C@H]3O)[C@@H](O)[C@H]2O)c(=S)[nH]1 |
| 350 nM (agonist) | O=c1[nH]c(=S)ccn1[C@@H]1O[C@H](COP(=O)(O)OP(=O)(O)O[C@H]2O[C@H](CO)[C@@H](O)[C@H](O)[C@H]2O)[C@@H](O)[C@H]1O |

Same assay, conditions: cos-7

| Compound | EC50 |
| --- | --- |
| CC(=O)N[C@@H]1[C@H](OP(=O)(O)OP(=O)(O)OC[C@H]2O[C@@H](n3ccc(=O)[nH]c3=O)[C@H](O)[C@@H]2O)O[C@@H](CO)[C@H](O)[C@H]1O (stereo in doubt) | 810 nM (agonist) |
